Results on 8 compounds are retold here after US20240067651A1 (Biohaven Therapeutics Ltd., priority 2019, published 2024).

Bounds are passed on as bounds.

Series [1] is described as follows: Caco-2 Permeability Assay. The class given is in vitro ADME, human. The conditions noted are these: human. The method, boiled down: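 Bidirectional transport at 37 °C for 90 min, 10 μM donor concentration, with or without Pgp inhibitor, across 21-day Caco-2 monolayers with TEER >600 […] in HEPES-buffered HBSS, pH 7.4. LC-MS/MS of donor and receiver samples gives Papp, B→A/A→B efflux ratio and mass recovery.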
(In general: Caco-2 monolayers are a common model of the intestinal barrier.)

Another series can be described thus: Plasma Stability. Format: in vitro ADME, human. In outline: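 Parent compound quantified by LC-MS/MS after acetonitrile precipitation, reported as percent of control remaining (triplicate). Incubation: 1 hour, 37° C, fresh human plasma, compound at 1 μM.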
Series [2] is described as follows: Stability in Simulated Intestinal Fluid (SIF). Format: in vitro ADME. The arrangement: key: % parent compound remaining relative to 0-minute sample. In outline: (§1)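 Percent of parent remaining relative to time zero was measured by LC-MS/MS over 0–60 min at 37 °C, 150 rpm. Test compound was 2 μg/mL final in pepsin-containing SGF, pH 1.2, or pancreatin-containing SIF, pH 6.8. Degradation half-life was derived from the log-linear decay where enough points allowed.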

Series [3] is described as follows: Stability in Simulated Gastric Fluid (SGF). The class given is in vitro ADME. The arrangement: key: % parent compound remaining relative to 0-minute sample. The method, boiled down:
as §1

The mark [4] stands for this setting: Caco-2, pH 7.4, donor 10 μM, 90 minutes, 37° C., direction not given.
Where [5] appears, read: % remaining at 1 h, human plasma, 1 μM, 37° C.
[6] abbreviates: bare number, no % and no time given.
Setting [7] is: % remaining at 1 h, SIF with pancreatin pH 6.8, 2 μg/mL, 37° C.
[8] abbreviates: % remaining at 1 h, SGF with pepsin pH 1.2, 2 μg/mL, 37° C.
Where [9] appears, read: Caco-2, pH 7.4, Caco-2 monolayer.
Where [10] appears, read: % @ 1 h (remaining) in human plasma.
The mark [11] stands for this setting: % @ 1 h (remaining) in simulated intestinal fluid.
Setting [12] is: % @ 1 h (remaining) in simulated gastric fluid.

The Papp is the rate of passage across a membrane or cell layer, normalised by area and donor concentration. As to `CC(C)OCCn1c(SCOC(=O)N(CC(F)(F)F)CC(F)(F)F)nc(=O)c2c1ccn2COC(=O)N(CC(F)(F)F)CC(F)(F)F` [Example 97, {2-[{{[bis(2,2,2-trifluoroethyl)carbamoyl]oxy}methyl)sulfanyl]-4-oxo-1-[2-(propan-2-yloxy)ethyl]-1H,4H,5H-pyrrolo[3,2-d]pyrimidin-5-yl}methyl N,N-bis(2,2,2-trifluoroethyl)carbamate], the Papp at 90 min, 10 µM in series [1] (setting [4]) is 30.8 ×10⁻⁶ cm/s. For the same compound, the “human Plasma stability” value in “Plasma Stability” (setting [5]) amounted to 99% remaining. Further, in series [2] (setting [6]), the SIF was 96. Moreover, the SGF in series [3] (setting [6]) is 98.

`CC(C)OCCn1c(=S)[nH]c(=O)c2c1ccn2COC(=O)c1ccccc1` [Example 116, {4-oxo-1-[2-(propan-2-yloxy)ethyl]-2-sulfanylidene-1H, 2H,3H,4H,5H-pyrrolo[3,2-d]pyrimidin-5-yl}methylbenzoate] gave a Papp at 90 min, 10 µM in series [1] (setting [4]) of 6.41 ×10⁻⁶ cm/s. The “human Plasma stability” value in “Plasma Stability” (setting [5]) was 1%. Also, in series [2] (setting [7]), the SIF is reported as 46%. Besides, the SGF in series [3] (setting [8]) is 99%.

In series [1] (Caco-2, pH 7.4), `CC(C)OCCn1c(=S)n(COC(=O)[C@H](Cc2ccccc2)NC(=O)OC(C)(C)C)c(=O)c2c1ccn2COC(=O)[C@H](Cc1ccccc1)NC(=O)OC(C)(C)C` [Example 304, [3-({[(2S)-2-{[(tert-butoxy)carbonyl]amino}-3-phenylpropanoyl]oxy}methyl)-4-oxo-1-[2-(propan-2-yloxy)ethyl]-2-sulfanylidene-1H,2H,3H,4H,5H-pyrrolo[3,2-d]pyrimidin-5-yl]methyl (2S)-2-{[(tert-butoxy)carbonyl]amino}-3-phenylpropanoate] displayed a Papp at 90 min, 10 µM of 0.34 ×10⁻⁶ cm/s. For the same compound, the “human Plasma stability” value in “Plasma Stability” (% remaining @ 1 h) is reported as 99% @ 1 h. The SIF in series [2] (% remaining @ 1 h) is recorded as 67% @ 1 h. Besides, the SGF in series [3] (% remaining @ 1 h) is given as 44% @ 1 h.

On to `Cc1ccc(N(C)C(=O)OCSc2nc(=O)c3[nH]ccc3n2CCOC(C)C)cc1` [Example 248], for which the apparent permeability coefficient (Papp) at 90 min, 10 µM in series [1] (setting [9]) was 23.5 ×10⁻⁶ cm/s. For the same compound, the “human Plasma stability” value in “Plasma Stability” (human plasma, at 1 h) was 96% remaining. For the same compound, the SIF in series [2] (simulated intestinal fluid, at 1 h) is reported as 98% remaining. The SGF in series [3] (simulated gastric fluid, at 1 h) was 99% remaining.

Consider `CC(C)OCCn1c(SCOC(=O)N(C)C(C)C)nc(=O)c2[nH]ccc21.O=C(O)C(F)(F)F` [Example 166], for which the Papp at 90 min, 10 µM in series [1] (setting [9]) was found to be 7.08 ×10⁻⁶ cm/s. Also, the “human Plasma stability” value in the series “Plasma Stability” (setting [10]) stood at 100% @ 1 h. Also, the SIF in series [2] (setting [11]) is recorded as 99% @ 1 h. Further, the SGF in series [3] (setting [12]) is 99% @ 1 h.

In the case of `COC(=O)[C@H](CCCCNC(=O)OC(C)(C)C)NC(=O)n1ccc2c1c(=O)[nH]c(=S)n2CCOC(C)C` [Example 103, Methyl (2S)-6-{[(tert-butoxy)carbonyl]amino}-2-({4-oxo-1-[2-(propan-2-yloxy)ethyl]-2-sulfanylidene-1H,2H,3H,4H,5H-pyrrolo[3,2-cl]pyrimidine-5-carbonyl}amino)hexanoate], the Papp at 90 min, 10 µM in series [1] (setting [4]) amounted to 13.5 ×10⁻⁶ cm/s. Besides, the “human Plasma stability” value in “Plasma Stability” (setting [5]) turned out to be 92%. The SIF in series [2] (setting [7]) is given as 96%. The SGF in series [3] (setting [8]) is on record as 96%.

In turn, `CCN(C)C(=O)OCn1ccc2c1c(=O)nc(SCOC(=O)N(C)C(C)C)n2CCOC(C)C.O=C(O)C(F)(F)F` [Example 170] displayed a Papp at 90 min, 10 µM in series [1] (setting [9]) of 14.1 ×10⁻⁶ cm/s. The “human Plasma stability” value in the series “Plasma Stability” (setting [10]) worked out at 99% @ 1 h. For the same compound, the SIF in series [2] (setting [11]) is on record as 92% @ 1 h. The SGF in series [3] (setting [12]) is listed as 99% @ 1 h.

In the case of `CC(C)OCCn1c(SCOCC[Si](C)(C)C)nc(=O)c2c1ccn2COCC[Si](C)(C)C` [Example 73, 1-[2-(propan-2-yloxy)ethyl]-5-{[2-(trimethylsilyl)ethoxy]-methyl}-2-({[2-(trimethylsilyl)ethoxy]methyl}sulfanyl)-1H,4H,5H-pyrrolo[3,2-d]pyrimidin-4-one], the Papp at 90 min, 10 µM in series [1] (setting [4]) was under 0.717 ×10⁻⁶ cm/s. The “human Plasma stability” value in the series “Plasma Stability” (setting [5]) was 99%. Further, the SIF in series [2] (setting [7]) is on record as 55%. Moreover, in series [3] (setting [8]), the SGF is recorded as 35%.
